Values after ≈ are worked out from the molar mass of the structure shown. Counter-ions that a name gives are not always drawn. Like-named read-outs stand apart in the source and are kept apart here.
Key:
MRSA ATCC 43300 [1] = experiment: MRSA wound infection model: wound bacterial burden; type: in vivo, mice
Description: (§1) Six weeks SPF-ICR female mice were used for this study. The Experimental model, inducted of inflammatory in mice by skin excision, was established referring to existing methods with some alterations. The mice were anesthetized with the intravenous injection of 1% sodium pentobarbital. After their hair on the back was shaved, the mice were anesthetized and the back skin was perforated with a biopsy perforator at a depth of fascia injury. The inoculum (50 μL), containing 10^9 CFU/mL of the indicated microorganism (MRSA ATCC 43300), was applied on the wound for three times at 30 min intervals. 100 μL drug (3 mg/mL) was administrated on the wound at 1 h after inoculation for three consecutive days. A total of 100 μL blank matrix was given to the infected control group and the non-infected group in the same way. The wound was wrapped with sterile gauze. During the treatment, all mice were kept individually and free to eat and drink.
At the end of the examination, mice were anesthetized and killed. Tissue samples, reaching to the muscle membrane, were removed from the middle of the wound surface and homogenized in 0.9% saline. Serially diluted aliquots of homogenate were cultured on high-salt mannitol agar plate at 37 °C for 24 h. The log of the colony number was used for statistical analysis.

MRSA ATCC 43300 [2] = experiment: MRSA wound infection model: wound size; type: in vivo, mice; details: after treatment for three days; 100 μL drug (3 mg/mL) on the wound
Description: as §1
The wounds were examined on day 1 and days 3 after treatment. The area of wound were measured according to previous reports with some modifications. In each group, six mice were taken out and anesthetized to take photos and measure the size of the wound as the results.

MRSA ATCC 43300 [3] = system: MRSA ATCC 43300; set-up: method as in PMID 28295316; details: 4× MIC, cited from earlier work
MRSA N54 = experiment: MIC testing, clinical strain; type: cell-based; details: Staphylococcus aureus
Excerpt: (§2) Methicillin-resistant Staphylococcus aureus (MRSA) ATCC 43300, Staphylococcus aureus ATCC 29213, Escherichia coli ATCC 25922, Salmonella typhimurium ATCC 14028, Enterococcus faecalis ATCC 29212, and Enterococcus faecium ATCC 35667 were obtained from the China Institute of Veterinary Drug Control (Beijing, China). Five clinical strains of MRSA (N7, N9, N20, N30, and N54) were isolated from diseased pig tissues of South China Agricultural University and Foshan University Animal Hospital. All clinical strains were identified as MRSA by Gram stain, catalase reaction, coagulase test, staphylococcus API identification system test, MecA gene test, and methicillin MIC test.
(§3) The MIC of amphenmulin against MRSA, Escherichia coli, Salmonella typhimurium, Enterococcus faecalis, and Enterococcus faecium were determined using tiamulin as controls. MIC values were measured by the method of previous work. Staphylococcus aureus ATCC 29213 was used as the quality control bacteria, and the quality control range was referred to the Clinical and Laboratory Standards Institute (CLSI). The bacteria solution was diluted to ~10^6 CFU/mL with Mueller–Hinton (MH) broth for MRSA, Escherichia coli and Salmonella typhimurium while Trypticase Soy Broth for Enterococcus faecalis and Enterococcus faecium. Drugs were dissolved in an aqueous solution of N, N-dimethylformamide (DMF) at a concentration of 2560 µg/mL, and then diluted with broth to prepare working solution (1280 µg/mL). The drug susceptibility testing was performed in 96-well plate. A total of 20 µL of working solution was added into column 1 and well mixed as a 10-fold dilution, following which Serial 2-fold dilutions were prepared to provide concentration ranges of 128–0.0078 µg/mL. Blank broth (no cultures) and bacteria solution (drugs replaced by blank solvent) were set as drug-free controls. Each 96-well plate was cultured at 37 °C for 24 h. The MIC value is the lowest concentration of amphenmulin which inhibits the visible growth of bacteria. The experiment was repeated three times.

MRSA N7 = experiment: MIC testing, clinical strain; type: cell-based; details: Staphylococcus aureus
Excerpt: as §2, §3

MRSA N9 = experiment: MIC testing, clinical strain; type: cell-based; details: Staphylococcus aureus
Excerpt: as §2, §3

MRSA N30 = experiment: MIC testing, clinical strain; type: cell-based; details: Staphylococcus aureus
Excerpt: as §2, §3

MRSA N20 = experiment: MIC testing, clinical strain; type: cell-based; details: Staphylococcus aureus
Excerpt: as §2, §3

E. coli ATCC 25922 = experiment: MIC testing (broth dilution, 96-well plate); type: cell-based; details: Escherichia coli, ATCC25922
Description: as §3

S. aureus ATCC 29213 = experiment: MIC testing (broth dilution, 96-well plate); type: cell-based; details: Staphylococcus aureus, ATCC29213
Description: as §3

E. faecalis ATCC 29212 = experiment: MIC testing (broth dilution, 96-well plate); type: cell-based; details: Enterococcus faecalis, ATCC29212
Description: as §3

E. faecium ATCC 35667 = experiment: MIC testing (broth dilution, 96-well plate); type: cell-based; details: Enterococcus faecium, ATCC35667
Description: as §3

[4] = system: S. typhimurium ATCC 14028; experiment: MIC testing (broth dilution, 96-well plate); type: cell-based; details: Salmonella enterica
Description: as §3

Row | SMILES | number of bacteria in wound tissue vs infected group (MRSA ATCC 43300 [1]; one day after treatment, p < 0.05) | number of bacteria in wound tissue (MRSA ATCC 43300 [1]; three days after treatment, 100 μL drug (3 mg/mL) on the wound) [log10 CFU/mL] | wound area (MRSA ATCC 43300 [2]) [cm^2] | PAE (MRSA ATCC 43300 [3]; exposure for 1 h) [h] | PAE (MRSA ATCC 43300 [3]; exposure for 2 h) [h] | MIC (MRSA N54) [µg/mL] | MIC (MRSA N7) [µg/mL] | MIC (MRSA N9) [µg/mL] | MIC (MRSA N30) [µg/mL] | MIC (MRSA N20) [µg/mL] | MIC (E. coli ATCC 25922) [µg/mL] | MIC (S. aureus ATCC 29213) [µg/mL] | MIC (E. faecalis ATCC 29212) [µg/mL] | MIC (E. faecium ATCC 35667) [µg/mL] | MIC [4] [µg/mL]
1 | CN[C@H](CC(C)C)C(=O)N[C@H]1C(=O)N[C@@H](CC(N)=O)C(=O)N[C@H]2C(=O)N[C@H]3C(=O)N[C@H](C(=O)N[C@H](C(=O)O)c4cc(O)cc(O)c4-c4cc3ccc4O)[C@H](O)c3ccc(c(Cl)c3)Oc3cc2cc(c3O[C@@H]2O[C@H](CO)[C@@H](O)[C@H](O)[C@H]2O[C@H]2C[C@](C)(N)[C@H](O)[C@H](C)O2)Oc2ccc(cc2Cl)[C@H]1O [vancomycin, vancomycin hydrochloride, reference compound] | significant decrease | 4.25 ± 0.57 | 0.44 ± 0.07 |  |  |  |  |  |  |  |  |  |  |  | 
2 | C=C[C@]1(C)C[C@@H](OC(=O)CSCCN(CC)CC)[C@]2(C)[C@H](C)CC[C@]3(CCC(=O)[C@H]32)[C@@H](C)[C@@H]1O [Tiamulin, reference compound] |  |  |  | 1.90 | 2.04 | 0.5 (≈ 1.01 µM) | 16 (≈ 32.4 µM) | 0.5 (≈ 1.01 µM) | 32 (≈ 64.8 µM) | 32 (≈ 64.8 µM) | > 128 | 0.5 (≈ 1.01 µM) | > 128 | 2 (≈ 4.05 µM) | > 128

From article PMC7071076, “Antibacterial Activity and Pharmacokinetic Profile of a Promising Antibacterial Agent: 22-(2-Amino-phenylsulfanyl)-22-Deoxypleuromutilin” (Molecules, 2020)
